Source: US10513519B2, “Solid forms of (1S,4S)-4-(2-(((3S,4R)-3-fluorotetrahydro-2H-pyran-4-yl)amino)-8-((2,4,6-trichlorophenyl)amino)-9H-purin-9-yl)-1-methylcyclohexane-1-carboxamide and methods of their use” (Signal Pharmaceuticals, LLC, priority 2016, dated 2019)

What was measured:
Assay type in all cases: cell-based
[1] = test system: pRSK1 S380 in Colo 205 cells; test: pRSK1 S380 Mesoscale assay in Colo 205 (incl. time course)
Method: (§1) Cancer cells were seeded at a density of 25,000 cells per well in 96-well tissue culture plates and incubated at 37° C. in a CO2 incubator overnight. After treatment with Compound 1 at 37° C. for 2 h, the cells were lysed with Mesoscale lysis buffer and pRSK S380 levels in each lysate were measured via Mesoscale ELISA technology.
In a time course experiment, Colo-205 cancer cells were treated with 0.5 μM Compound 1 for various time periods. The effect of Compound 1 on pRSK S380 was measured as described. The effect of Compound 1 on other MAPK pathway markers (DUSP4 and DUSP6) was measured via Western blotting with specific antibodies.

[2] = test system: pRSK1 S380 in AGS cells; test: pRSK1 S380 Mesoscale assay in AGS; conditions: Homo sapiens, 2 h treatment, n = 3
Method: as §1

[3] = test system: cell lines having β-catenin mutations; test: Sensitivity of cell lines by mutation status (β-catenin, BRAF, RB, PI3K/PTEN)
Method: Evaluation of sensitivity in cell lines having beta-catenin mutations. The effect of Compound 1 on cell lines having β-catenin mutations was evaluated. (FIG. 205 and FIGS. 206A-206B).

[4] = test system: 64 cancer cell lines; test: Anti-proliferative activity across a panel of 64 cancer cell lines (CellTiter-Glo)
Method: Prior to testing, cells were grown and expanded in culture flasks to provide sufficient amounts of starting material. Cells were then diluted to the appropriate densities and added directly to the compound-spotted 384-well plates. Cells were allowed to grow for 72 h at 37° C./5% CO2. At the time when compound was added (to), initial cell number was assessed via a viability assay (Cell Titer-Glo) by quantifying the level of luminescence generated by ATP present in viable cells. After 72 h, cell viability of compound-treated cells was assessed via Cell Titer-Glo and luminescence measurement. The apoptotic response to Compound 1 was assessed by quantifying the activities of caspase 3 and caspase 7 (Caspase 3/7-Glo) in treated cells and DMSO control cells.
Cells were treated with DMSO or increasing concentrations of Compound 1 for 72 h. Proliferation was measured using CellTiter-Glo as described.

[5] = HUH-6-clone5, 72 h, HuH-6-Clone5 (Liver)
[6] = HepG2/C3A, 72 h, HepG2/C3A (Liver)
[7] = Homo sapiens, A549, 72 h, A549 (Lung)
[8] = Homo sapiens, A-375, 72 h, A375 (Melanoma)
[9] = Homo sapiens, BXPC-3, 72 h, BxPC-3 (Pancreas)
[10] = Homo sapiens, CFPAC-1, 72 h, CFPAC-1 (Pancreas)
[11] = Homo sapiens, COLO 205, 72 h, Colo 205 (Colon)
[12] = Homo sapiens, HCT-116, 72 h, HCT-116 (Colon)
[13] = Homo sapiens, HOP-62, 72 h, HOP62 (Lung)
[14] = Homo sapiens, HOP-92, 72 h, HOP92 (Lung)
[15] = Homo sapiens, HT-29, 72 h, HT29 (Colon)
[16] = Homo sapiens, HT-29, 72 h, HT29/219 (Colon)
[17] = Homo sapiens, Hep3B, 72 h, Hep3B (Liver)
[18] = Homo sapiens, HepG2, 72 h, HepG2 (Liver)
[19] = Homo sapiens, HuCCT-1, 72 h, HuCCT1 (Liver)
[20] = Homo sapiens, HuH-1, 72 h, HuH-1 (Liver)
[21] = Homo sapiens, Huh-7, 72 h, HuH-7 (Liver)
[22] = Homo sapiens, K562, 72 h, K-562 (Leukemia)
[23] = Homo sapiens, KATO III, 72 h, KATOIII, Stomach
[24] = Homo sapiens, LOX IMVI, 72 h, LOX-IMVI (Melanoma)
[25] = Homo sapiens, LoVo, 72 h, LOVO (Colon)

SMILES: C[C@]1(C(N)=O)CC[C@@H](n2c(Nc3c(Cl)cc(Cl)cc3Cl)nc3cnc(N[C@@H]4CCOC[C@H]4F)nc32)CC1 [Compound 1, cis-4-[2-{[(3S,4R)-3-fluorooxan-4-yl]amino}-8-(2,4,6-trichloroanilino)-9H-purin-9-yl]-1-methylcyclohexane-1-carboxamide]
- pRSK1 inhibition ([1]; Colo 205, 2 h): potently inhibited pRSK1
- inhibition of ERK targets pRSK1, DUSP4 and DUSP6 over time ([1]; Colo-205, 0.5 μM, time course): sustained inhibition (up to 72 hr)
- IC50 ([1]; Homo sapiens, Colo 205, 2 h treatment, n = 3): 47 nM
- IC50 [2]: 20 nM
- efficacy against cell lines with mutated β-catenin [3]: showed efficacy
- GI50 ([4]; 72 h, 92-1 (Melanoma)): 10.2 nM
- IC50 ([4]; 72 h, 92-1 (Melanoma)): 31.6 nM
- GI50 ([4]; 72 h, AGS, Stomach): 23 nM
- IC50 ([4]; 72 h, AGS, Stomach): 28 nM
- GI50 ([4]; 72 h, FOCUS (Liver)): 1500 nM
- IC50 ([4]; 72 h, FOCUS (Liver)): 4300 nM
- GI50 ([4]; 72 h, HLE (Liver)): 4850 nM
- IC50 ([4]; 72 h, HLE (Liver)): 9620 nM
- GI50 ([4]; 72 h, HLF (Liver)): 6680 nM
- IC50 ([4]; 72 h, HLF (Liver)): 7390 nM
- GI50 ([4]; 72 h, JHH-5 (Liver)): 4.5 nM
- IC50 ([4]; 72 h, JHH-5 (Liver)): 7 nM
- GI50 ([4]; 72 h, JHH-6 (Liver)): 10000 nM
- IC50 ([4]; 72 h, JHH-6 (Liver)): 10000 nM
- GI50 ([4]; 72 h, PC-9 (Lung)): 217 nM
- IC50 ([4]; 72 h, PC-9 (Lung)): 379 nM
- proliferation of multiple cancer cell lines ([4]; 72 h, CRC, melanoma, gastric cancer, HCC, lung cancer, pancreatic cancer, leukemia, multiple myeloma): inhibit the proliferation
- GI50 [4, 5]: 29.1 nM
- IC50 [4, 5]: 1220 nM
- GI50 [4, 6]: 4620 nM
- IC50 [4, 6]: 10000 nM
- GI50 [4, 7]: 40.2 nM
- IC50 [4, 7]: 82.2 nM
- GI50 [4, 8]: 21 nM
- IC50 [4, 8]: 24 nM
- GI50 [4, 9]: 36.8 nM
- IC50 [4, 9]: 70.8 nM
- GI50 [4, 10]: 1950 nM
- IC50 [4, 10]: 7400 nM
- GI50 [4, 11]: 25 nM
- IC50 [4, 11]: 40 nM
- GI50 [4, 12]: 17 nM
- IC50 [4, 12]: 22 nM
- GI50 [4, 13]: 339 nM
- IC50 [4, 13]: 3490 nM
- GI50 [4, 14]: 108 nM
- IC50 [4, 14]: 117 nM
- GI50 [4, 15]: 16 nM
- IC50 [4, 15]: 25 nM
- GI50 [4, 16]: 1.7 nM
- IC50 [4, 16]: 4.5 nM
- GI50 [4, 17]: 5.3 nM
- IC50 [4, 17]: 14.7 nM
- GI50 [4, 18]: 34.6 nM
- IC50 [4, 18]: 1240 nM
- GI50 [4, 19]: 25.3 nM
- IC50 [4, 19]: 1300 nM
- GI50 [4, 20]: 235 nM
- IC50 [4, 20]: 7260 nM
- GI50 [4, 21]: 21.2 nM
- IC50 [4, 21]: 489 nM
- GI50 [4, 22]: 5420 nM
- IC50 [4, 22]: 6030 nM
- GI50 [4, 23]: 7050 nM
- IC50 [4, 23]: 8020 nM
- GI50 [4, 24]: 22 nM
- IC50 [4, 24]: 25 nM
- GI50 [4, 25]: 63 nM
- IC50 [4, 25]: 126 nM
- GI50 ([4]; Homo sapiens, MDA-MB-231, 72 h, MDA-MB-231 (Breast)): 35.3 nM
